In patent US10406236B2, “Single wall nanotube constructs and uses thereof” (Sloan-Kettering Institute for Cancer Research, priority 2005, dated 2019):

What was measured:
tumor expressing cells = settings: previous reports; cited from earlier work
CD8+ T cells = experiment: WT-1 peptide specific CTL responses in vivo (ELISPOT); settings: mouse
Description: Mouse footpads of C57BL/6 or BALB/c, depending on the peptide specificity, are injected with the various OVA constructs in the presence or absence of adjuvant (Titermax, Sigma) along with appropriate control groups. Serum from immunized animals is obtained via retro-orbital bleeding and assayed for SWNT specific Abs using the ELISA protocol described above.
HA-Multiscreen plates were coated with rat-anti-mouse IFN-g antibody (MabTech). CD8+ T cells isolated and purified from the paplitial lymph nodes of immunized animals are plated, and APCs from a non-immunized mouse are isolated, irradiated, pulsed with peptides, and added to the CD8+ T cells at an E:T ratio of 1:4. The cellular mixture is incubated overnight at 37° C. and the plates were developed the next day using an antibody against rat IgG. Spots were counted using a computer assisted video image analyzer with KS ELISPOT 4.0 software (Carol Zeiss Vision, Germany).
A few of these peptides were screened for their ability to elicit WT-1 peptide specific CTL responses in vivo using the methods described above.

peptide pulsed APCs = experiment: ^51Cr cytotoxicity assay; assay type: cell-based, mouse; settings: E:T ratios 1:60-1:7, 4 hours
Description: To detect the cytotoxic nature of the activated CD8+ T cells peptide specific CD8+ cells and irradiated peptide pulsed APCs were prepared as described above. The peptide sensitized APCs were labeled with 100 μCi of ^51Cr and incubated together with the CD8+ cells at E:T ratios varying from 1:60-1:7. After incubation together for 4 hours, supernatants were harvested and measured in a gamma counter.

GFP1/FFLuc1 Daudi tumor = experiment: Biodistribution and tumor targeting in disseminated lymphoma model; assay type: in vivo; settings: 24 h after i.v. injection, tumor-bearing scid mice
Description: The specific SWNT-rituximab-^111In*DOTA construct or control SWNT-HuM195-^111In*DOTA (Lintuzumab) construct was prepared by adding 111-185 MBq of acidic 111In chloride to 0.50 mg of SWNT-rituximab-DOTA or SWNT-HuM195-DOTA (50 g/L) in MFW and 0.050 mL of 3 M ammonium acetate to yield a pH 5.5 solution. The reaction mixture was maintained at ambient temperature for 30 min and then purified using a 10DG column with 1% HSA/0.9% NaCl. The radiochemical purity of SWNT-rituximab-DOTA or SWNT-HuM195-DOTA was 95% and the radiolabeled Rituximab was 98% as determined by the ITLC-SG methods described herein.
The biodistribution and tumor targeting specificity of SWNT-rituximab-^111In*DOTA was evaluated against different controls in a murine model of disseminated lymphoma (33) using the GFP1/FFLuc1 Daudi cell line. The tumor was introduced by injecting 5 million cells into each of the female C.B.-17 severe combined immunodeficiency (scid) mice (8- to 10-wk old; Taconic Farms) intravenously via the retroorbital sinus route. Tumor growth in mice was determined by BLI using a Xenogen IVIS Optical Imaging System (Xenogen Corp.). Imaging was performed on mice that received an intraperitoneal injection of 3 mg of D-Luciferin (Xenogen) per mouse. On day 28 after tumor infusion, the tumor-bearing mice were separated into 4 groups; an additional 2 groups of scid mice with no tumor were included as control. […]

Daudi (CD20+, specific) = settings: reference (33); cited from earlier work
serum antibodies = experiment: Competition study of serum antibodies to SWNT; assay type: binding, Balb/c mice; settings: high concentrations (>0.1 mg/ml)

CMTWNQMNL [WTI-235]
ability to kill tumor expressing cells or to produce a successful vaccine (tumor expressing cells): limited ability | stimulation of CD8+ T cells that cross react with the native sequence (CD8+ T cells): unable

ALLPAVSSL [WTI-10]
stimulation of CD8+ T cells that cross react with the native sequence (CD8+ T cells): unable

AYLPAVSSL [WTI-10A]
immune response (WT-1 peptide specific CTL response in vivo) (CD8+ T cells): robust immune response | stimulation of CD8+ T cells that cross react with the native sequence (CD8+ T cells): stimulated CD8+ T cells that cross reacted with the native sequence

SYLESQPTI [WTI-136A]
immune response (WT-1 peptide specific CTL response in vivo) (CD8+ T cells): robust immune response | stimulation of CD8+ T cells that cross react with the native sequence (CD8+ T cells): stimulated CD8+ T cells that cross reacted with the native sequence

SCLESQPTI [WTI-136]
stimulation of CD8+ T cells that cross react with the native sequence (CD8+ T cells): unable

RYFPNAPYL [WTI-126A]
heteroclitic response (peptide pulsed APCs): able to stimulate a heteroclitic response | killing of peptide pulsed targets by CD8+ T cells (peptide pulsed APCs): killed pulsed targets

[111In]Rituximab: ^111In-labeled Rituximab targeting antibody, positive control
femur % ID/g (GFP1/FFLuc1 Daudi tumor): 11.4±3.32 % ID/g | immunoreactive fraction measured previously (Daudi (CD20+, specific)): 42%±17%

CMTWNQMNM [WTI-235A]
immune response (WT-1 peptide specific CTL response in vivo) (CD8+ T cells): robust immune response | stimulation of CD8+ T cells that cross react with the native sequence (CD8+ T cells): stimulated CD8+ T cells that cross reacted with the native sequence | heteroclitic response (peptide pulsed APCs): able to stimulate a heteroclitic response | killing of peptide pulsed targets by CD8+ T cells (peptide pulsed APCs): killed pulsed targets

O=C(O)CCCC[C@@H]1SC[C@@H]2NC(=O)N[C@@H]21 [biotin]
inhibition of serum antibodies (serum antibodies): did not
